Legend:
Assay type in all cases: cell-based
[1] = tested on: MYB mRNA; experiment: Splicing RT-qPCR assay (THP), Table 2A; details: Table 2A, THP; for AC50: MYB alternative junction (AJ) mRNA, read-out: MYB AJ (AC50, increase in alternative junction mRNA); for IC50: MYB canonical junction (CJ) mRNA, read-out: MYB CJ (IC50, decrease in canonical junction mRNA)
[2] = tested on: SH-SY5Y (human neuroblastoma) cells; experiment: Cell viability, Cell Titer Glo 2.0 assay; details: read-out: Viability SHSY5Y.3 GI50
Procedure, shortened: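 Steps: serial DMSO dilution of compound, 1:100 dilution into medium, addition to cells (0.1% DMSO final). Incubate 72 h at 37 °C, 5% CO2. Assay with CellTiter-Glo 2.0 reagent.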

[3] = tested on: MYB mRNA; experiment: Gene panel canonical junction qPCR assay, decrease in CJ mRNA, Table 3; details: decrease in CJ mRNA levels, canonical junction qPCR, gene panel
Procedure, shortened: (§1)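 IC50 is the concentration giving 50% response in decrease of the canonical junction transcript, fitted with a 4-parameter logistic equation. Transcripts were quantified by RT-qPCR in A673 or K562 cells after 24 h exposure to compounds dosed up to 10 uM in 3-fold steps.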

[4] = tested on: HTT mRNA; experiment: as above; details: decrease in CJ mRNA levels, canonical junction qPCR, gene panel
Procedure, shortened: as §1

[5] = tested on: HTT mRNA; experiment: Splicing RT-qPCR assay (THP), Table 2A; details: Table 2A, THP; for AC50: HTT alternative junction (AJ) mRNA, read-out: HTT AJ (AC50, increase in alternative junction mRNA); for IC50: HTT canonical junction (CJ) mRNA, read-out: HTT CJ (IC50, decrease in canonical junction mRNA)

COc1cc2c(N3CCC(NC4CC4)CC3)ccc(C(=O)Nc3cc4cn(C)nc4cc3OC)n2n1 [Compound 632, 4-[4-(cyclopropylamino)-1-piperidyl]-2-methoxy-N-(6-methoxy-2-methyl-indazol-5-yl) pyrazolo[1,5-a]pyridine-7-carboxamide]
1 to 10 µM: GI50 [2]
0.1 to 1 µM: IC50 [4] | AC50 [5] | IC50 [5]
< 0.1 µM: AC50 [1] | IC50 [1] | IC50 [3]

COc1cc2c(N3CCC(NC4CC4)CC3)ccc(C(=O)Nc3cn4cc(C)nc(C)c4n3)n2n1 [Compound 633, 4-[4-(cyclopropyl-amino)-1-piperidyl]-N-(6,8-dimethyl-imidazo[1,2-a]pyrazin-2-yl)-2-methoxypyrazolo [1,5-a]-pyridine-7-carboxamide]
0.1 to 1 µM: AC50 [1] | IC50 [1] | IC50 [3]
> 10 µM: GI50 [2] | IC50 [4] | AC50 [5] | IC50 [5]

COc1cc2c(N3CCC(NC4CC4)CC3)ccc(C(=O)Nc3cn4cc(C)nc4c(OC)n3)n2n1 [Compound 634, 4-[4-(cyclopropyl-amino)-1-piperidyl]-2-methoxy-N-(8-methoxy-2-methylimidazo[1,2-a]pyrazin-6-yl)-pyrazolo[1,5-a]pyridine-7-carboxamide]
< 0.1 µM: AC50 [1] | IC50 [1] | IC50 [3] | IC50 [4] | AC50 [5] | IC50 [5]
0.1 to 1 µM: GI50 [2]

Cc1cn2cc(NC(=O)c3ccc(N4CCC(NC5CC5)CC4)n4nc(C)nc34)cc(F)c2n1 [Compound 640, 5-[4-(cyclopropylamino)-1-piperidyl]-N-(8-fluoro-2-methyl-imidazo[1,2-a]pyridin-6-yl)-2-methyl-[1,2,4]-triazolo[1,5-a]-pyridine-8-carboxamide]
0.1 to 1 µM: GI50 [2] | IC50 [4] | AC50 [5] | IC50 [5]
< 0.1 µM: AC50 [1] | IC50 [1] | IC50 [3]

Cc1cn2cc(NC(=O)c3ccc(N4CCC(NC5CC5)CC4)n4nc(C)nc34)nc2c(C)n1 [Compound 641, 5-[4-(cyclopropylamino)-1-piperidyl]-N-(6,8-dimethylimidazo-[1,2-a]pyrazin-2-yl)-2-methyl-[1,2,4]-triazolo[1,5-a]pyridine-8-carboxamide]
0.1 to 1 µM: AC50 [1] | IC50 [1] | GI50 [2] | IC50 [3] | IC50 [4] | AC50 [5] | IC50 [5]

Cc1cn2cc(NC(=O)c3ccc(N4CCNCC4)c4c3OCO4)cc(F)c2n1 [Compound 642, N-(8-fluoro-2-methyl-imidazo[1,2-a]pyridin-6-yl)-7-piperazin-1-yl-1,3-benzodioxole-4-carboxamide]
1 to 10 µM: AC50 [1] | IC50 [1] | GI50 [2] | IC50 [3] | IC50 [4] | AC50 [5] | IC50 [5]

Cc1cn2cc(NC(=O)c3ccc(N4C[C@@H](C)N[C@@H](C)C4)c4c3OCO4)cc(F)c2n1 [Compound 643, 7-[(3S,5R)-3,5-dimethylpiperazin-1-yl]-N-(8-fluoro-2-methyl-imidazo[1,2-a]pyridin-6-yl)-1,3-benzodioxole-4-carboxamide]
0.1 to 1 µM: AC50 [1] | IC50 [1] | IC50 [3]
1 to 10 µM: GI50 [2] | IC50 [4] | AC50 [5] | IC50 [5]

Cc1cn2cc(NC(=O)c3ccc(N4CCC(NC5CC5)CC4)c4c3OCO4)cc(F)c2n1 [Compound 648, 7-[4-(cyclopropylamino)-1-piperidyl]-N-(8-fluoro-2-methyl-imidazo[1,2-a]pyridin-6-yl)-1,3-benzodioxole-4-carboxamide]
1 to 10 µM: AC50 [1] | IC50 [1] | IC50 [3]
> 10 µM: GI50 [2] | IC50 [4] | AC50 [5] | IC50 [5]

Cc1cn2cc(NC(=O)c3ccc(N4CCC(NC5CC5)C4)c4c3OCO4)cc(F)c2n1 (stereo not drawn) [Compound 649, 7-[3-(cyclopropylamino)-pyrrolidin-1-yl]-N-(8-fluoro-2-methyl-imidazo[1,2-a]pyridin-6-yl)-1,3-benzodioxole-4-carboxamide]
1 to 10 µM: IC50 [1] | GI50 [2] | IC50 [3]
> 10 µM: IC50 [4] | AC50 [5] | IC50 [5]
0.1 to 1 µM: AC50 [1]

COc1c(NC(=O)c2ccc(N3CCC(NC4CC4)CC3)c3c2OCO3)cn2cc(C)nc2c1F [Compound 650, 7-[4-(cyclopropylamino)-1-piperidyl]-N-(8-fluoro-7-methoxy-2-methyl-imidazo[1,2-a]pyridin-6-yl)-1,3-benzodioxole-4-carboxamide]
0.1 to 1 µM: GI50 [2] | AC50 [5]
< 0.1 µM: AC50 [1] | IC50 [1] | IC50 [3] | IC50 [4] | IC50 [5]

Cc1cn2cc(NC(=O)c3ccc(N4C[C@@H](C)N[C@@H](C)C4)c4c3OC(F)(F)O4)cc(F)c2n1 [Compound 651, 7-[(3R,5S)-3,5-dimethylpiperazin-1-yl]-2,2-difluoro-N-(8-fluoro-2-methylimidazo[1,2-a]-pyridin-6-yl)-1,3-benzodioxole-4-carboxamide]
> 10 µM: AC50 [1] | IC50 [1] | GI50 [2] | IC50 [3] | IC50 [4] | AC50 [5] | IC50 [5]

Cc1cn2cc(NC(=O)c3ccc(N4C[C@@H](C)N[C@@H](C)C4)c4c3OC(C)(C)O4)cc(F)c2n1 [Compound 656, 7-[(3S,5R)-3,5-dimethylpiperazin-1-yl]-N-(8-fluoro-2-methyl-imidazo[1,2-a]-pyridin-6-yl)-2,2-dimethyl-1,3-benzodioxole-4-carboxamide]
> 10 µM: AC50 [1] | IC50 [1] | GI50 [2] | IC50 [3] | IC50 [4] | AC50 [5] | IC50 [5]

COc1cc2nn(C)cc2cc1NC(=O)c1c(F)cc(N2CCC(NC3CC3)CC2)c2nc(C)sc12 [Compound 661, 4-[4-(cyclopropyl-amino)-1-piperidyl]-6-fluoro-N-(6-methoxy-2-methyl-indazol-5-yl)-2-methyl-1,3-benzothiazole-7-carboxamide]
1 to 10 µM: AC50 [1] | IC50 [1] | GI50 [2] | IC50 [3] | IC50 [4] | AC50 [5] | IC50 [5]

Cc1cn2cc(NC(=O)c3c(F)cc(N4CCC(NC5CC5)CC4)c4nc(C)sc34)cc(F)c2n1 [Compound 662, 4-[4-(cyclopropyl-amino)-1-piperidyl]-6-fluoro-N-(8-fluoro-2-methyl-imidazo[1,2-a]pyridin-6-yl)-2-methyl-1,3-benzothiazole-7-carboxamide]
1 to 10 µM: GI50 [2]
> 10 µM: AC50 [1] | IC50 [1] | IC50 [3] | IC50 [4] | AC50 [5] | IC50 [5]

COc1c(NC(=O)c2c(F)cc(N3CCC(NC4CC4)CC3)c3nc(C)sc23)cn2cc(C)nc2c1F [Compound 663, 4-[4-(cyclopropylamino)-1-piperidyl]-6-fluoro-N-(8-fluoro-7-methoxy-2-methyl-imidazo[1,2-a]-pyridin-6-yl)-2-methyl-1,3-benzothiazole-7-carboxamide]
1 to 10 µM: AC50 [1] | IC50 [1] | GI50 [2] | IC50 [3] | IC50 [4] | AC50 [5] | IC50 [5]

COc1nc(NC(=O)c2c(F)cc(N3CCC(NC4CC4)CC3)c3nc(C)sc23)cn2cc(C)nc12 [Compound 664, 4-[4-(cyclopropylamino)-1-piperidyl]-6-fluoro-N-(8-methoxy-2-methylimidazo-[1,2-a]pyrazin-6-yl)-2-methyl-1,3-benzothiazole-7-carboxamide]
1 to 10 µM: AC50 [1] | IC50 [1] | GI50 [2] | IC50 [3] | IC50 [4] | AC50 [5] | IC50 [5]

Cc1cn2nc(NC(=O)c3c(F)cc(N4CCC(NC5CC5)CC4)c4nc(C)sc34)cc(C)c2n1 [Compound 665, 4-[4-(cyclopropyl-amino)-1-piperidyl]-N-(2,8-dimethylimidazo[1,2-b]-pyridazin-6-yl)-6-fluoro-2-methyl-1,3-benzothiazole-7-carboxamide]
0.1 to 1 µM: AC50 [1] | IC50 [1] | GI50 [2] | IC50 [3] | IC50 [4] | AC50 [5] | IC50 [5]

COc1nc2c(N3CCC(NC4CC4)CC3)ccc(C(=O)Nc3cc(F)c4nc(C)cn4c3)c2o1 [Compound 666, 4-[4-(cyclopropylamino)-1-piperidyl]-N-(8-fluoro-2-methyl-imidazo[1,2-a]-pyridin-6-yl)-2-methoxy-1,3-benzoxazole-7-carboxamide]
0.1 to 1 µM: AC50 [1] | IC50 [1] | IC50 [3]
1 to 10 µM: GI50 [2] | IC50 [4] | AC50 [5] | IC50 [5]

Source: patent US20260285853A1, “COMPOUNDS AND METHODS FOR MODULATING SPLICING” (REMIX THERAPEUTICS INC., priority 2023, published 2026)
